# Source: paper PMC3351391, “Inhibition Mechanism and Model of an Angiotensin I-Converting Enzyme (ACE)-Inhibitory Hexapeptide from Yeast (Saccharomyces cerevisiae)” (PLoS ONE, 2012)
# “Also recorded” adds a separate entry of the source. No end group written: not given here.
# Experiments:
# [1] = test system: ACE; details: cited from earlier work; for mode of ACE inhibition (literature): compete with the substrate for binding to the active site
# Protocol: In this study, we investigated the inhibition mechanism of the hexapeptide on the basis of its sequence to provide a reference for the design of drugs that target such enzymes as ACE. || To determine the inhibitory mechanism, Lineweaver-Burk plots were determined for the ACE-inhibitory peptide from yeast (TPTQQS). […] Thus, the peptide can combine with the ACE molecule to produce a dead-end complex, regardless of whether a substrate molecule is bound or not. The complex between ACE and TPTQQS can prevent the formation of the reaction product, HA. […] However, the amino acid sequence of this peptide is not in accordance with the results of structure-activity correlation studies on ACE-inhibitory peptides. […] In the present study, we demonstr ...
# [2] = test system: ACE; assay: Assay of ACE-inhibitory activity (HPLC, hippuric acid from HHL); format: biochemical; details: peptide 0.25 mmol/L (Fig. 4); HHL substrate, 0.1 mol/L Na-borate buffer pH 8.3; 5 min pre-incubation, 1 h at 37°C; RP-HPLC of HA at 228 nm
# Protocol: (§1) The determination of ACE-inhibitory activity was performed using a High Performance Liquid Chromatography (HPLC) method, modified from a spectrophotometric method. HHL (Sigma, USA) was dissolved in 0.1 mol/L Na-borate buffer (pH 8.3) containing 1.55 mmol/L NaCl. ACE (Sigma, USA) was dissolved in the same buffer at a concentration of 0.2 U/mL. A mixture containing 10 µL of inhibitor and 5 µL of ACE solution was incubated at 37°C for 5 min, 50 µL of HHL solution was added, and the solution was incubated for 1 h. The reaction was stopped by adding 100 µL of 0.1% trifluoroacetic acid (TFA) (Sigma, USA). The amount of hippuric acid (HA) yielded by ACE catalysis was measured by RP-HPLC (GX-281, Gilson, France) with an octadecylsilyl (ODS) column (4.6 mm×250 mm, 5 µm, Agilent, USA). The mobile phase was 60% methanol (V/V) containing 0.1% TFA at a flow rate of 0.8 mL/min. The effluent was monitored at 228 nm. The ACE-inhibitory activity was calculated using Equation (1) as follows: [drawing 1] (1) where A is the content of HA generated in the presence of an ACE inhibitor, B is the content of HA generated without an ACE inhibitor, and C is the content of HA generated without ACE.
# [3] = target: T1, ACE (Oryctolagus cuniculus, UniProt P12822); assay: ITC titration of HHL into ACE in presence of inhibitor; format: binding; details: 0.024 µmol/L ACE and 0.13 µmol/L TPTQQS titrated with 1.55 mmol/L HHL; 37°C; pH 8.3
# T1 construct: purchased Sigma, USA
# T1 sequence (P12822 34-1310): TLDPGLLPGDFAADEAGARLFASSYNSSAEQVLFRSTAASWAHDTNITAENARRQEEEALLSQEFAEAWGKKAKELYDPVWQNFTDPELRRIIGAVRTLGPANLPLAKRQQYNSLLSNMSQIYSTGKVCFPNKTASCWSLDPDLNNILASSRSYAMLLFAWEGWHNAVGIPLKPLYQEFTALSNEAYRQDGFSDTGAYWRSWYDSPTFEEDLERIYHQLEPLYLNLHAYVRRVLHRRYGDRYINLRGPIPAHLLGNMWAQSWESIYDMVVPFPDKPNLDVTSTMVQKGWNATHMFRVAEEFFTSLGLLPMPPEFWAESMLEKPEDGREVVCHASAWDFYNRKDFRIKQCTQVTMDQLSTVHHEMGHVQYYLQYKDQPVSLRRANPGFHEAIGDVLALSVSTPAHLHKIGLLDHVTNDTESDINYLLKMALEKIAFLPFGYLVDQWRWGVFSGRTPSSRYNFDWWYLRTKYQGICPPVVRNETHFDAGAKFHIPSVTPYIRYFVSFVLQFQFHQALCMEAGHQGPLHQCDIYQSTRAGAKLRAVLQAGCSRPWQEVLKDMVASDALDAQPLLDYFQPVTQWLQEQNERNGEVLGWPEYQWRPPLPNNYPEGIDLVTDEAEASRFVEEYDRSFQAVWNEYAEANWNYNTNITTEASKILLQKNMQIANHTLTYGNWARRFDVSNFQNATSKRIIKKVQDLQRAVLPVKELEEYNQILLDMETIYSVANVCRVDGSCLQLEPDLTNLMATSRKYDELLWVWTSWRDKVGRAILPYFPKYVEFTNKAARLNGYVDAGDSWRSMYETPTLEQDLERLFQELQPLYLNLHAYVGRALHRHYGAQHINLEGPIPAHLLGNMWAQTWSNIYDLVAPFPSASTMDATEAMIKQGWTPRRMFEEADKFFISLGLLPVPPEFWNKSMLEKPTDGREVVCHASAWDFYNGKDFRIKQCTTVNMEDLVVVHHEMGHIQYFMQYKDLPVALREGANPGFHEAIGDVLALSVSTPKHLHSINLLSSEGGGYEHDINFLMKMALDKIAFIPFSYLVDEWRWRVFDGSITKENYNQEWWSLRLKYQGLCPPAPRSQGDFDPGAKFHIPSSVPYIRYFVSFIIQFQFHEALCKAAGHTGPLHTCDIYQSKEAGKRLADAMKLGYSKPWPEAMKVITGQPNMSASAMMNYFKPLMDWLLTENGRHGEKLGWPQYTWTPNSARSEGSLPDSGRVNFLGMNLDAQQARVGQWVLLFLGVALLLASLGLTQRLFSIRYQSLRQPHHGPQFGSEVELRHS
# Protocol: The isothermal titration calorimetry (ITC) experiments were carried out using a Nano ITC Low Volume System (TA Instruments-Waters LLC., USA) with a 190 µL cell. All of the experiments were performed at 37°C. ACE was prepared by diluting the stock solution in a buffer of the appropriate pH; the substrate was dissolved in the same buffer as the enzyme. In a control experiment, the ITC cell was filled with 0.024 µmol/L ACE (250 µL), and the ACE solution was titrated with 1.55 mmol/L HHL. The injection volume was […], and the time between two injections was 300 s during which the substrate was completely hydrolyzed. In the inhibition experiment, the ITC cell was filled with 0.024 µmol/L ACE and 0.13 µmol/L TPTQQS (250 µL), and the solution was titrated with 1.55 mmol/L HHL. The titration conditions were the same as those for the control experiment.
# [4] = test system: ACE; assay: Inhibition kinetics of ACE (Lineweaver-Burk plots, HHL substrate); format: biochemical; details: 100 and 200 µg/mL inhibitor; HHL 0.78, 1.55, 3.10 mM; Na-borate pH 8.3; 37°C
# Protocol: as §1, with “The mobile phase was 60% methanol (V/V) containing 0.1% TFA at a flow rate of 0.8 mL/min.” left out, “(1) where A is the content of HA generated in the presence of an ACE inhibitor, B is the content of HA generated without an ACE inhibitor, and C is the content of HA generated without ACE.” left out
# Inhibition kinetics of TPTQQS- Various substrate (HHL) concentrations (0.78 mM, 1.55 mM, and 3.10 mM) were incubated with the ACE solution in the presence or absence of 100 µg/mL, of 200 µg/mL TPTQQS at 37°C. The ACE-inhibitory activity was determined as described as described in the “Assay of ACE-inhibitory activity". The kinetics of ACE in the presence of the inhibitory peptide was determined using Lineweaver-Burk plots.
compound,measurement,setting,value
C[C@H](CS)C(=O)N1CCC[C@H]1C(=O)O [captopril],mode of ACE inhibition (literature),[1],Competitive inhibition
CCOC(=O)[C@H](CCc1ccccc1)N[C@@H](C)C(=O)N1CCC[C@H]1C(=O)O [enalapril],mode of ACE inhibition (literature),[1],Competitive inhibition
NCCCC[C@H](N[C@@H](CCc1ccccc1)C(=O)O)C(=O)N1CCC[C@H]1C(=O)O [lisinopril],mode of ACE inhibition (literature),[1],Competitive inhibition
TPTQQS [TPTQQS],inhibition rate,[2],72.55%
same,"affinity of HHL for ACE in the presence of inhibitor, ITC",[3],the same as that in the control experiment
same,mode of ACE inhibition by ITC,[3],non-competitive
same,mode of ACE inhibition (Lineweaver-Burk),[4],non-competitive inhibitor
same,"ACE-inhibitory activity (literature, in words)",[1]; isolated from hydrolyzed yeast protein,effective ACE-inhibitory peptide; also recorded: highly active
